Test results reported in ChEMBL document CHEMBL3638922, “2-amino-3-sulphonyl-tetrahydro-pyrazolo[1,5-A]pyrido-pyrimidine antagonists of serotonin 5-HT6 receptors, methods for the production and use thereof” (2013).

Target: 5-hydroxytryptamine receptor 6 (Homo sapiens, UniProt P50406)
Experiment: Radioligand Binding Assay: The screening of the disclosed compounds for their potential ability to interact with serotonin 5-HT6 receptors was carried out b the method of radioligand binding.

5-hydroxytryptamine receptor 6, sequence (P50406 whole entry): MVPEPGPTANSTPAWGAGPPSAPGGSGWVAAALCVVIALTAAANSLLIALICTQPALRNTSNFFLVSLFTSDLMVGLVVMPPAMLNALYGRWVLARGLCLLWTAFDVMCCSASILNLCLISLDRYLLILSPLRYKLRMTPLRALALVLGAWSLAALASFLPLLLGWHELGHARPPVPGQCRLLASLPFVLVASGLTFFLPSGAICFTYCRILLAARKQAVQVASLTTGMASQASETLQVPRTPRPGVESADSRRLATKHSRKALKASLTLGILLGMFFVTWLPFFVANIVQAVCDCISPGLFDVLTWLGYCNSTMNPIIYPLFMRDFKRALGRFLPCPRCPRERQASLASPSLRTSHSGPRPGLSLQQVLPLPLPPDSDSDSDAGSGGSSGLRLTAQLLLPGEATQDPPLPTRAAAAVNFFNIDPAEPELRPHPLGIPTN

SMILES | IC50 [nM] | Ki [nM]
CNc1nn2c3c(cnc2c1S(=O)(=O)c1ccccc1)CN(C)CC3 | 0.837 | –
CNc1nn2cc3c(nc2c1S(=O)(=O)c1ccccc1)CCN(C)C3 | 7.02 | 3.26
